Source: ChEMBL document CHEMBL4033739, “Design and synthesis of novel δ opioid receptor agonists with an azatricyclodecane skeleton for improving blood-brain barrier penetration” (Bioorg Med Chem Lett, 2017)

Assays:
[1] = molecular target: T1, Delta-type opioid receptor (Homo sapiens, UniProt P41143); experiment: Displacement of [3H]DPDPE from human recombinant DOR expressed in CHO cell membranes
[2] = molecular target: T2, Mu-type opioid receptor (Homo sapiens, UniProt P35372); experiment: Displacement of [3H]DAMGO from human recombinant MOR expressed in CHO cell membranes
T2 sequence (P35372 whole entry): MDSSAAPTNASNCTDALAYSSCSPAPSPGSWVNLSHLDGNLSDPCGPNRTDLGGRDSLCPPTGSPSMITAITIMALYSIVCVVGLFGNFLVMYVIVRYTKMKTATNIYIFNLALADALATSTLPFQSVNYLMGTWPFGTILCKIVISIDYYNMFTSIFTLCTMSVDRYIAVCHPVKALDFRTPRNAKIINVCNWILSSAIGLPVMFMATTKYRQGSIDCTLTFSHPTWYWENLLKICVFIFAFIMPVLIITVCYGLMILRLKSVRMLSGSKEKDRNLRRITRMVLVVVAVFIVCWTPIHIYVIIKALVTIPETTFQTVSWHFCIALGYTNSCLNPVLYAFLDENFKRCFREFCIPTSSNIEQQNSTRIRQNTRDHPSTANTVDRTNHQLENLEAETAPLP

[3] = molecular target: T3, Kappa-type opioid receptor (Homo sapiens, UniProt P41145); experiment: Displacement of [3H]U-69,593 from human recombinant KOR expressed in CHO cell membranes
T3 sequence (P41145 whole entry): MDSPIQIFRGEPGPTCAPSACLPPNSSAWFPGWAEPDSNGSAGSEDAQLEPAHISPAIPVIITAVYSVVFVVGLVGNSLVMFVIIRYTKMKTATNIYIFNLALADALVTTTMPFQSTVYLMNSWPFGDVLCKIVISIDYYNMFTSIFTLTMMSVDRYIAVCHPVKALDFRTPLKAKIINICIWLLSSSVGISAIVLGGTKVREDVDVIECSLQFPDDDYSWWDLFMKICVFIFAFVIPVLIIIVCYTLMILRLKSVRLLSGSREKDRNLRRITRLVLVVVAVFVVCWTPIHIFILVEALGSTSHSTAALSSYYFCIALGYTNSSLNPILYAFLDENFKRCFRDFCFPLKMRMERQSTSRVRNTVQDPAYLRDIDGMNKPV

[4] = species on record: Homo sapiens; experiment: Selectivity index, ratio of Ki for human recombinant MOR expressed in CHO cell membranes to Ki for human recombinant DOR expressed in CHO cell membranes; type: cell-based
[5] = species on record: Homo sapiens; experiment: Selectivity index, ratio of Ki for human recombinant KOR expressed in CHO cell membranes to Ki for human recombinant DOR expressed in CHO cell membranes; type: cell-based
[6] = molecular target: T1, Delta-type opioid receptor; experiment: Agonist activity at human recombinant DOR expressed in CHO cells assessed as cAMP accumulation; type: functional, cell-based
[7] = molecular target: T1, Delta-type opioid receptor; experiment: Agonist activity at human recombinant DOR expressed in CHO cells assessed as cAMP accumulation relative to SNC80; type: functional, cell-based
[8] = molecular target: T2, Mu-type opioid receptor; experiment: Agonist activity at human recombinant MOR expressed in CHO cells assessed as cAMP accumulation at 10 uM relative to DAMGO; type: functional, cell-based
[9] = molecular target: T3, Kappa-type opioid receptor; experiment: Agonist activity at human recombinant KOR expressed in CHO cells assessed as cAMP accumulation at 10 uM relative to U-69,593; type: functional, cell-based
[10] = Apparent permeability at 10 uM incubated for 60 mins by RBT-24 kit; type: physicochemical; settings: rat, not told
[11] = tested on: Mus musculus; experiment: Antinociceptive activity in sc dosed ICR mouse assessed as reduction in acetic acid-induced writhing response administered 20 mins before acetic acid injection and measured for 20 mins post acetic acid injection; type: functional
[12] = molecular target: T2, Mu-type opioid receptor; experiment: Agonist activity at human recombinant MOR expressed in CHO cells assessed as cAMP accumulation; type: functional, cell-based
[13] = molecular target: T3, Kappa-type opioid receptor; experiment: Agonist activity at human recombinant KOR expressed in CHO cells assessed as cAMP accumulation; type: functional, cell-based
[14] = molecular target: T3, Kappa-type opioid receptor; experiment: Agonist activity at human recombinant KOR expressed in CHO cells assessed as cAMP accumulation relative to U-69,593; type: functional, cell-based
[15] = molecular target: T2, Mu-type opioid receptor; experiment: Agonist activity at human recombinant MOR expressed in CHO cells assessed as cAMP accumulation relative to DAMGO; type: functional, cell-based

T1 sequence (P41143 whole entry): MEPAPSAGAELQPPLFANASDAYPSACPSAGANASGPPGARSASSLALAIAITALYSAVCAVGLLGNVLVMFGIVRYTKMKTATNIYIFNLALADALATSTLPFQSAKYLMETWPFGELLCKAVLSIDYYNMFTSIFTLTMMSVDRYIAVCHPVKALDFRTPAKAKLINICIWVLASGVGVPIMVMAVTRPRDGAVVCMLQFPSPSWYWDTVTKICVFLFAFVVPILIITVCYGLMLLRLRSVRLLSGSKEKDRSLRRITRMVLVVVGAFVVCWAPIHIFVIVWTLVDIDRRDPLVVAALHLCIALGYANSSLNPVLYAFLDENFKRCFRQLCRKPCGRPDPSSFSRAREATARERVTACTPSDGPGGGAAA

## O=C(c1ccccc1)N1C[C@H]2CC34CCC1C2C31CCN(CC2CC2)C4Cc2ccc(O)cc21 (stereo partly drawn)
[1]
  Ki: 0.211 nM
[2]
  Ki: 0.578 nM
[3]
  Ki: 0.362 nM
[4]
  Ratio Ki: 2.7
[5]
  Ratio Ki: 1.7
[6]
  EC50: 0.31 nM
[7]
  Emax: 93%
[8]
  Emax: 4.7%
[9]
  Emax: 5.5%
[10]
  Papp at 1 h, 10 µM: 18.5 ×10⁻⁶ cm/s
[11]
  ED50: 1.15 mg/kg

## Oc1ccc2c(c1)C13CCN(CC4CC4)C(C2)C12CCC1C3[C@@H](CN1c1ccccc1)C2 (stereo partly drawn)
[1]
  Ki: 1.26 nM
[2]
  Ki: 0.953 nM
[3]
  Ki: 2.43 nM
[4]
  Ratio Ki: 0.8
[5]
  Ratio Ki: 1.9
[6]
  EC50: 4.7 nM
[7]
  Emax: 82%
[12]
  EC50: 10 nM
[13]
  EC50: 8.1 nM
[14]
  Emax: 54%
[15]
  Emax: 50%

## O=C(Oc1ccccc1)N1C[C@H]2CC34CCC1C2C31CCN(CC2CC2)C4Cc2ccc(O)cc21 (stereo partly drawn)
[1]
  Ki: 0.833 nM
[2]
  Ki: 0.826 nM
[3]
  Ki: 0.522 nM
[4]
  Ratio Ki: 1
[5]
  Ratio Ki: 0.6
[6]
  EC50: 1.3 nM
[7]
  Emax: 92%
[8]
  Emax: 5.6%
[13]
  EC50: 2.5 nM
[14]
  Emax: 27%

## Oc1ccc2c(c1)C13CCN(CC4CC4)C(C2)C12CCC1C3[C@@H](CN1Cc1ccccc1)C2 (stereo partly drawn)
[1]
  Ki: 0.585 nM
[2]
  Ki: 3.44 nM
[3]
  Ki: 4.26 nM
[4]
  Ratio Ki: 5.9
[5]
  Ratio Ki: 7.3
[6]
  EC50: 0.42 nM
[7]
  Emax: 90%
[8]
  Emax: 18%
[13]
  EC50: 4.5 nM
[14]
  Emax: 36%

## Oc1ccc2c(c1)C13CCN(CC4CC4)C(C2)C12CCC1C3[C@@H](CN1c1cnccn1)C2 (stereo partly drawn)
[1]
  Ki: 0.356 nM
[2]
  Ki: 0.813 nM
[3]
  Ki: 0.479 nM
[4]
  Ratio Ki: 2.3
[5]
  Ratio Ki: 1.3
[6]
  EC50: 0.43 nM
[7]
  Emax: 71%
[8]
  Emax: 5.7%
[13]
  EC50: 0.2 nM
[14]
  Emax: 24%

## O=C(Nc1ccccc1)N1C[C@H]2CC34CCC1C2C31CCN(CC2CC2)C4Cc2ccc(O)cc21 (stereo partly drawn)
[1]
  Ki: 0.265 nM
[2]
  Ki: 0.545 nM
[3]
  Ki: 0.336 nM
[4]
  Ratio Ki: 2.1
[5]
  Ratio Ki: 1.3
[6]
  EC50: 1.5 nM
[7]
  Emax: 42%
[8]
  Emax: 6.2%
[13]
  EC50: 0.3 nM
[14]
  Emax: 44%

## Oc1ccc2c(c1)C13CCN(CC4CC4)C(C2)C12CCC1C3[C@@H](CN1CC1CCCCC1)C2 (stereo partly drawn)
[1]
  Ki: 1.46 nM
[2]
  Ki: 2.5 nM
[3]
  Ki: 0.781 nM
[4]
  Ratio Ki: 1.7
[5]
  Ratio Ki: 0.5
[6]
  EC50: 1.7 nM
[7]
  Emax: 82%
[12]
  EC50: 21 nM
[13]
  EC50: 5.7 nM
[14]
  Emax: 45%
[15]
  Emax: 17%

## O=C(c1ccoc1)N1C[C@H]2CC34CCC1C2C31CCN(CC2CC2)C4Cc2ccc(O)cc21 (stereo partly drawn)
[1]
  Ki: 0.313 nM
[2]
  Ki: 0.455 nM
[3]
  Ki: 0.221 nM
[4]
  Ratio Ki: 1.5
[5]
  Ratio Ki: 0.7
[6]
  EC50: 0.23 nM
[7]
  Emax: 93%
[12]
  EC50: 155 nM
[13]
  EC50: 1.4 nM
[14]
  Emax: 33%
[15]
  Emax: 50%

## O=C(c1ccccn1)N1C[C@H]2CC34CCC1C2C31CCN(CC2CC2)C4Cc2ccc(O)cc21 (stereo partly drawn)
[1]
  Ki: 0.458 nM
[2]
  Ki: 0.726 nM
[3]
  Ki: 0.564 nM
[4]
  Ratio Ki: 1.6
[5]
  Ratio Ki: 1.2
[6]
  EC50: 0.35 nM
[7]
  Emax: 85%
[8]
  Emax: 6.5%
[9]
  Emax: 18%
